Read-outs that look alike come from different tables or passages of the source.
Legend:
MT-2 cells = experiment: Cytotoxicity assay (AlamarBlue) in mock infected MT-2 cells; type: cell-based, human
Protocol: (§1) The present assay was used to screen candidate antiviral compounds by quantification of virus spread and production over several rounds of infection in vitro. MT-2, a HIV-1 permissive human T-cell line, was seeded in microtiter plates and was simultaneously treated with serially diluted compound and inoculated with a HIV-1 NL4-3 viral clone engineered to express Renilla luciferase in place of Net Following treatment, the culture was incubated for 96 hours. After the incubation, media was collected and used to estimate relative infectivity on the indicator cell line, TZM-bl. Additionally, viral spread was quantified by measuring luciferase activity via a commercially available luciferase substrate. In parallel, MT-2 cells were seeded and inoculated with mock virus in the presence of serially diluted compound. Compound toxicity was quantified 96 hours after treatment with AlamarBlue.
(§2) MT-2 (NIH Aids reagent program 237) cells were grown and maintained in an incubator at 37° C. with 5% CO2 using a basal medium of RPMI-1640 supplemented with 10% FBS. Cells were seeded in 100 μl at 2×10^4 cells/well in white walled 96-well microtiter plates. Candidate compounds were 3-fold serially diluted in the appropriate solvent. Solvent without compound was used as a no drug reference. Cells were inoculated at a multiplicity of 0.027 with an HIV-1 NL4-3 virus stock engineered to express Renilla luciferase in place of Net Diluted virus stock was first added to serially diluted compound. Compound and virus were delivered to cells in an equal volume (100 μl) and treated cultures were returned to the incubator for 96 hours. In parallel, plates for cytotoxicity estimates were prepared in the same way except cells were plated in clear walled 96-well microtiter plates and were mock infected.
(§3) At 96 hours post treatment, 20 μl AlamarBlue proliferation reagent was added to 200 μl treated and mock infected cultures and incubated for 3 hours at 37° C. with 5% CO2 then read at 545, 590 nm on fluorescence plate reader (Biotek).
(§4) For all assays, data was imported into Accelrys Assay Explorer 3.3. In Assay Explorer, % inhibition (antiviral or cytotoxicity) was calculated using the solvent control as a reference by the following equation: 1−(SignalCompound/SignalReference). The % Inhibition and compound concentration data was fitted using the following 4-parameter logistic model (Assay Explorer model 42):
(§5) [formula] where X is compound concentration, Y is % inhibition, D is the maximum % Inhibition (constrained to 100%), C is IC50 value or inflection point, B is the hill slope, and A is the minimum % inhibition (constrained to 0%). The IC50 value is reported as the EC50 or CC50 depending on the assay endpoint. EC50 represents the effective concentration at which virus replication is inhibited by 50 percent. CC50 represents the concentration that results in the death of 50 percent of the host cells. The selectivity or therapeutic index (SI or TI), is the ratio of CC50 over EC50 and represents the relative effectiveness in inhibiting viral replication compared to inducing cell death.

[1] = system: HIV-1 NL4-3 viral clone expressing Renilla luciferase; experiment: microbe, parasite or virus in culture; type: cell-based
Summary of the method: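 MT-2 cells (2×10^4/well) were infected at MOI 0.027 with Renilla-luciferase HIV-1 NL4-3 alongside 3-fold compound dilutions for 96 h. Spread was read by EnduRen luminescence and supernatant infectivity on TZM-bl (48 h, MUG fluorescence). Mock-infected cytotoxicity used AlamarBlue. % inhibition versus solvent was fitted by 4-parameter logistic (0–100% constrained) for EC50/CC50.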

[2] = Cytotoxicity assay (AlamarBlue) in mock infected MT-2 cells; type: cell-based, human; conditions: human
Protocol: as §1, §2, §3, §4, §5

[3] = Human immunodeficiency virus 1, NL43, MT2, 96 h
[4] = mock infected MT-2 cells, 96 hours, AlamarBlue, read-out: CC50

SMILES	CC50 (MT-2 cells; human, 96 h) [µM]	EC50 [1, 3] [µM]	further results
COC(=O)N1CCc2cc(OCc3ccccc3)c(OC)cc2C1/C=C/c1cc(OC)c(OC)cc1C (stereo not shown) [Example I, Methyl 6-benzyloxy-1-[(E)-2-(4,5-dimethoxy-2-methyl-phenyl)vinyl]-7-methoxy-3,4-dihydro-1H-isoquinoline-2-carboxylate]	100	4.48	–
COc1cc(C)c(/C=C/C2c3cc(OC)c(OCc4ccccc4)cc3CCN2C(=O)c2cccc(N)n2)cc1OCc1ccccc1 (stereo not shown) [Example F, (6-Amino-2-pyridyl)-[6-benzyloxy-1-[(E)-2-(5-benzyloxy-4-methoxy-2-methyl-phenyl)vinyl]-7-methoxy-3,4-dihydro-1H-isoquinolin-2-yl]methanone]	100	5.05	–
COc1cc(C)c(/C=C/C2c3cc(OC)c(OCc4ccccc4)cc3CCN2C(=O)c2cccnc2)cc1OCc1ccccc1 (stereo not shown) [Example T, [6-benzyloxy-1-[(E)-2-(5-benzyloxy-4-methoxy-2-methyl-phenyl)vinyl]-7-methoxy-3,4-dihydro-1H-isoquinolin-2-yl]-(3-pyridyl)methanone]	100	0.93	–
COc1cc(C)c(/C=C/C2c3cc(OC)c(OCc4ccccc4)cc3CCN2C(=O)c2cnccn2)cc1OCc1ccccc1 (stereo not shown) [Example H, [6-Benzyloxy-1-[(E)-2-(5-benzyloxy-4-methoxy-2-methyl-phenyl)vinyl]-7-methoxy-3,4-dihydro-1H-isoquinolin-2-yl]-pyrazin-2-yl-methanone]	100	4.48	–
COc1cc(C)c(/C=C/C2c3cc(OC)c(OCc4ccccc4)cc3CCN2C(=O)c2ccccn2)cc1OCc1ccccc1 (stereo not shown) [Example M, [6-benzyloxy-1-[(E)-2-(5-benzyloxy-4-methoxy-2-methyl-phenyl)vinyl]-7-methoxy-3,4-dihydro-1H-isoquinolin-2-yl]-(2-pyridyl)methanone]	100	2.09	–
CCOCc1cc(/C=C/C2NCCc3cc(OCc4ccccc4)c(OC)cc32)ccc1OC (stereo not shown) [EP, (E)-6-(benzyloxy)-1-(3-(ethoxymethyl)-4-methoxystyryl)-7-methoxy-1,2,3,4-tetrahydroisoquinoline]	–	0.846	CC50 at 96 h [2]: 4 µM
COc1ccc(/C=C/C2NCCc3cc(OCc4ccccc4)c(OC)cc32)c(C(F)(F)F)c1 (stereo not shown) [Example Z, 6-benzyloxy-7-methoxy-1-[(E)-2-[4-methoxy-2-(trifluoromethyl)phenyl]vinyl]-1,2,3,4-tetrahydroisoquinoline]	–	0.35	CC50 (MT-2 cells; [4]): 100 µM
COc1cc(C)c(/C=C/C2c3cc(OC)c(OCc4ccccc4)cc3CCN2C(=O)c2cccnc2N)cc1OCc1ccccc1 (stereo not shown) [Example K, (2-Amino-3-pyridyl)-[6-benzyloxy-1-[(E)-2-(5-benzyloxy-4-methoxy-2-methyl-phenyl)vinyl]-7-methoxy-3,4-dihydro-1H-isoquinoline-2-yl]methanone]	100	2.88	–
COc1cc(C)c(/C=C/C2c3cc(OC)c(OCc4ccccc4)cc3CCN2C(N)=O)cc1OCc1ccccc1 (stereo not shown) [Example R, 6-benzyloxy-1-[(E)-2-(5-benzyloxy-4-methoxy-2-methyl-phenyl)vinyl]-7-methoxy-3,4-dihydro-1H-isoquinoline-2-carboxamide]	–	1.18	CC50 (MT-2 cells; [4]): 39.3 µM
COc1ncc(/C=C/C2NCCc3cc(OCc4ccccc4)c(OC)cc32)cn1 (stereo not shown) [DD, (E)-(benzyloxy)-7-methoxy-1-(2-(2-methoxypyrimidin-5-yl)vinyl)-1,2,3,4-tetrahydroisoquinoline]	100	11.1	–
COc1cc2c(cc1OCc1ccccc1)CCNC2/C=C/c1ccc2cn[nH]c2c1 (stereo not shown) [BT, 6-Benzyloxy-1-[(E)-2-(1H-indazol-6-yl)vinyl]-7-methoxy-1,2,3,4-tetrahydroisoquinoline]	–	–	CC50 (MT-2 cells): 7.98 µM; EC50 ([1]; MT-2 cells infected with HIV-1 NL4-3, 96 hours, read-out: EC50): 0.613 µM
COc1cc(C(C)(C)C)c(/C=C/C2NCCc3cc(OCc4ccccc4)c(OC)cc32)cc1OCc1ccccc1 (stereo not shown) [AS, 6-Benzyloxy-1-[(E)-2-(5-benzyloxy-2-tert-butyl-4-methoxy-phenyl)vinyl]-7-methoxy-1,2,3,4-tetrahydroisoquinoline]	–	4.22	CC50 (MT-2 cells; [4]): 5.36 µM
COc1cc(C)c(/C=C/C2c3cc(OC)c(OCc4ccccc4)cc3CCN2C(=O)c2ccnc(N)c2)cc1OCc1ccccc1 (stereo not shown) [Example N, (2-amino-4-pyridyl)-[6-benzyloxy-1-[(E)-2-(5-benzyloxy-4-methoxy-2-methyl-phenyl)vinyl]-7-methoxy-3,4-dihydro-1H-isoquinolin-2-yl]methanone]	100	2.03	–
COc1cc(C)c(/C=C/C2c3cc(OC)c(OCc4ccccc4)cc3CCN2C(=O)c2ccc(N)nc2)cc1OCc1ccccc1 (stereo not shown) [Example P, (6-amino-3-pyridyl)-[6-benzyloxy-1-[(E)-2-(5-benzyloxy-4-methoxy-2-methyl-phenyl)vinyl]-7-methoxy-3,4-dihydro-1H-isoquinolin-2-yl]methanone]	100	1.69	–

Source: patent publication US10195189B2, “2-phenethenyltetrahydro isoquinolines useful as anti-HIV compounds” (priority 2014, dated 2019)
